In patent publication US20260191856A1 (priority 2022, published 2026):
“Also recorded” adds a separate entry of the source. Where two headings read alike, the source gives them in different places. Marks after values point to notes of the source that are not given here.

Assays:
[1] = target: T1, CB1 (Homo sapiens, UniProt P21554); test: GTP turnover assay with CB1 and Gi1; format: biochemical; set-up: Purification of human full-length CB1 with an N-terminal FLAG and C-terminal hexahistidine tags; FLAG (N); hexahistidine (C); made in house; host or cells: insect cells (baculovirus, Expression Systems) for CB1; Trichoplusia ni for Gi
T1 sequence (P21554 whole entry): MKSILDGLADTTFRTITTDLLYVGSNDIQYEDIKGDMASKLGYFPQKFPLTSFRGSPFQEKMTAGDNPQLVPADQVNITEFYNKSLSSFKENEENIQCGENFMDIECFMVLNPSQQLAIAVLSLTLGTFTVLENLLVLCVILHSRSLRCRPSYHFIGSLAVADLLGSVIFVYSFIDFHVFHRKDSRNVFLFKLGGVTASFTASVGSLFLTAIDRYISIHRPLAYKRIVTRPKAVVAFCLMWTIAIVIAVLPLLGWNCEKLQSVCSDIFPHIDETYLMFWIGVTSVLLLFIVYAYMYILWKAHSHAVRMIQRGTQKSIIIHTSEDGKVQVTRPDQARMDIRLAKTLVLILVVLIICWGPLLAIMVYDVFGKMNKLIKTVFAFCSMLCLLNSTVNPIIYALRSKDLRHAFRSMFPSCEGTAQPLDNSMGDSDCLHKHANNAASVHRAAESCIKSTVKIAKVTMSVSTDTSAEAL

[2] = target: T2, MOR (Mus musculus, UniProt P42866); format: biochemical; set-up: FLAG (N); hexa-histidine (C); made in house; host or cells: Spodoptera frugiperda (Sf9) for MOR; Trichoplusia ni for Gi
T2 sequence (P42866 whole entry): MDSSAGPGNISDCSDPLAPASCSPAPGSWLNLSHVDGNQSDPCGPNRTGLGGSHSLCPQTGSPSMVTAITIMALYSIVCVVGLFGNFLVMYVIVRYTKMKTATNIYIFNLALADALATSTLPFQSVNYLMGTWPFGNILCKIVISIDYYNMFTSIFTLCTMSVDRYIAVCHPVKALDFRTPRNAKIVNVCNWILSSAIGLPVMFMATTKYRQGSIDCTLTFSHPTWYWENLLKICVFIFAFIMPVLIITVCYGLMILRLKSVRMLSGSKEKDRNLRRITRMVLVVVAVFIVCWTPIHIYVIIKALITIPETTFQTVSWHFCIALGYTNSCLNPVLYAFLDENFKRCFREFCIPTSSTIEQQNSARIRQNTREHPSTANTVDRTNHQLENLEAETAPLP

[3] = target: T2, MOR; test: biochemical; format: binding; set-up: made in house; host or cells: Sf9 insect cell membranes (baculovirus)
[4] = target: T1, CB1; test: 3H-SR141716A radioligand binding to CB1-containing membranes; set-up: made in house; host or cells: insect cell membranes (inferred from 'similar manner' to the Sf9 MOR membranes); conditions: compared with ZCZ
Description: CB1-containing membranes prepared in a similar manner to the μOR-containing membranes prepared above were diluted 1:2000 in 50 mM HEPES pH 7.4, 5 mM EDTA, 5 mM MgCl2, and 1% bovine serum albumin (BSA). 96-well plates precoated with blocking buffer (20 mM HEPES (pH 7.4), 100 mM NaCl, and 0.05% BSA) were used as reaction plates. For “competition” binding experiments, membranes were incubated with 6 nM ^3H-SR141716a (50.9 Ci/mmol; Perkin Elmer) and serially diluted allosteric modulators for 1 hour at room temperature with shaking. Following incubation, membranes were rapidly bound to double thick 90×120 mm glass fibre Printed Filtermat B filters (Perkin Elmer) presoaked in 0.33% (v/v) polyethylenimine and washed with cold binding buffer (20 mM HEPES pH 7.4, 100 mM NaCl) using a MicroBeta Filtermat-96 cell harvester (Perkin Elmer). ^3H-SR141716a bound membranes on Filtermats were measured with a MicroBeta counter (Perkin Elmer) after addition of MultiLex B/HS melt-on scintillator sheets (Perkin Elmer) and data values were plotted after normalizing total counts per minute to the highest and lowest values.

[5] = system: male C57BL/6J mice; test: Locomotor and respiration effects (CLAMS)
[6] = system: male C57BL/6J mice; test: Naloxone-precipitated opioid withdrawal assay
[7] = system: male C57BL/6J mice; test: Conditioned place preference (CPP) assay; format: in vivo, mouse; conditions: vehicle (−30 min) + naloxone 0.1 mg/kg s.c. (−15 min)
[8] = system: male C57BL/6J mice; conditions: mouse, in vivo
[9] = Condition 1 saline + NAL (10 mg/kg)
[10] = Condition 2 morphine + NAL (10 mg/kg)
[11] = Condition 3 morphine + low NAL (0.1 mg/kg)
[12] = Condition 3 morphine + low NAL (0.1 mg/kg), listed as NAL

`Cc1ccc2c(C(C[N+](=O)[O-])c3cccs3)c(-c3ccccc3)[nH]c2c1` (centres unmarked) [ZCZ, reference compound] was tested, and the “effect on Gi1 GTP turnover, AEA-bound CB1” value [1] was “causes increased Gi1 turnover for both FUB and AEA, equally” and the “effect on Gi1 GTP turnover, FUB-bound CB1” value [1] was “causes increased Gi1 turnover for both FUB and AEA, equally”.
`CNC(=O)[C@H](Cc1ccc(C)c(OC)c1)NC(=O)CSc1ccc2ccccc2c1-c1cncc(OCc2ccccc2)c1` [Compound B1, (S)-2-(2-((1-(5-(benzyloxy)pyridin-3-yl)naphthalen-2-yl)thio)acetamido)-3-(3-methoxy-4-methylphenyl)-N-methylpropanamide] was tested, and the “potency of B1 relative to B2, GTP turnover assays” value [2] was ≥ 100 and the “potency of B1 relative to B2, 3H-naloxone results” value ([3]; FIG. 5A) was ≥ 100 fold.
In the case of `CNC(=O)c1nc2ccc(N3CC(N)C3)nn2c1-c1ccc(OCc2ccccc2)c(F)c1` [Compound A4], the “effect on 3H-SR141716A antagonist binding” value [4] is reported as “binds CB1 and decreases antagonist affinity though with lower potency than the known PAM, ZCZ”, the “effect on Gi1 GTP turnover, AEA-bound CB1” value ([1]; AEA) is reported as “not AEA-bound CB1” and the “effect on Gi1 GTP turnover, FUB-bound CB1” value ([1]; FUB (MDMB-Fubinaca)) is reported as “enhance FUB-induced Gi turnover; also recorded: specifically able to increase turnover for FUB-bound CB1”.
`CNC(=O)[C@H](Cc1ccc(C#N)cc1)NCc1csc(-c2cccc(-c3ccc4cc(N)ccc4c3)c2)n1` [Compound A1] was tested, and the “GTP turnover in the absence of orthosteric ligand” value [2] was “can induce GTP turnover to similar levels observed for the full agonist DAMGO”, the “effect on met-enkephalin induced activation of G protein (GTP turnover)” value [2] was “enhance met-enkephalin induced activation of G protein” and the “efficacy of modulation of met-enkephalin-induced GTP turnover” value [2] was “more efficacious at improving GTP turnover compared to A2; also recorded: highly effective at enhancing activity, fully depleting nucleotide under these conditions”. For the same compound, the “potency in GTP turnover assay” value [2] was “low double-digit micromolar”, the “decrease in naloxone affinity for the receptor” value ([3]; in the presence of A1) was ~ 6 fold and the “effect on binding of 3H-naloxone” value ([3]; increasing amounts of compound, MOR-expressing membranes) was “decrease binding of ^3H-naloxone to MOR-expressing membranes”.
With `CN1CC[C@]23c4c5ccc(O)c4O[C@H]2[C@@H](O)C=C[C@H]3[C@H]1C5` [Morphine] the ambulations ([5]; Morphine (20 mg/kg, s.c.)) was “significantly increased ambulations for over 140 min” and the breathing rate ([5]; Morphine (20 mg/kg, s.c.)) was “decreased breathing rate through 100 min”.
With `C=CCN1CC[C@]23c4c5ccc(O)c4O[C@H]2C(=O)CC[C@@]3(O)[C@H]1C5` [Naloxone] the “Forepaw Tremor, Avg” value [6, 9] was 26.7, the “Jumping Frequency, Avg” value [6, 9] was 2.7 and the “Rearing Frequency, Avg” value [6, 9] was 23.5. The “Stool Consistency, Avg” value [6, 9] was 1.6, the “Straightening, Avg” value [6, 9] was 0.1 and the “Teeth Chattering Frequency, Avg” value [6, 9] was 1. For the same compound, the “Forepaw Tremor, Avg” value [6, 10] was 26.7, the “Jumping Frequency, Avg” value [6, 10] was 76.9* and the “Rearing Frequency, Avg” value [6, 10] was 2.64*. The “Stool Consistency, Avg” value [6, 10] was “precipitates significant diarrhea”, the “Straightening, Avg” value [6, 10] was 0.55 and the “Teeth Chattering Frequency, Avg” value [6, 10] was 54.2*. The “Stool Consistency, Avg” value ([6]; Condition 2 morphine + NAL (10 mg/kg), listed as NAL) was 7.46*, the “Forepaw Tremor, Avg” value [6, 11] was 7.3 and the “Jumping Frequency, Avg” value [6, 11] was “caused significant withdrawal symptoms”. The “Rearing Frequency, Avg” value [6, 11] was 22.2, the “Stool Consistency, Avg” value [6, 11] was “precipitates significant diarrhea” and the “Straightening, Avg” value [6, 11] was 3.1. For the same compound, the “Teeth Chattering Frequency, Avg” value [6, 11] was “had no effect relative to saline alone”, the “Jumping Frequency, Avg” value [6, 12] was 45.4*† and the “Stool Consistency, Avg” value [6, 12] was 9.3*. For the same compound, the “Teeth Chattering Frequency, Avg” value [6, 12] was 0.7+, the “effect of low-dose naloxone pretreatment on morphine-induced hyperlocomotion” value ([5]; naloxone 0.1 mg/kg) was “ineffective in ameliorating morphine-induced hyperlocomotion” and the “effect of low-dose naloxone pretreatment on morphine-induced respiratory depression” value ([5]; naloxone 0.1 mg/kg) was “observed to reduce morphine-induced respiratory depression”. For the same compound, the “morphine CPP after vehicle and low-dose naloxone” value [7] was “did not prevent significant morphine CPP” and the “antagonism of morphine-induced antinociception by low-dose naloxone alone” value [8] was “no significant antagonism”.
